Source: article PMC9714824, “Hexapeptides from mammalian inhibitory hormone hunt activate and inactivate nematode reproduction” (PLOS ONE, 2022)

How the values were obtained:
[1] = system: human marrow derived mesenchymal stem cells (hMSCs); assay: Peptide immobilisation studies, hMSC proliferation (CyQuant) and FACS; format: cell-based; details: alanine substitution study; for Mean cell number: N-terminally tethered, seeding 5,000 cells per well, CyQuant, mean +/− SEM, n = 3
From the text: Could the antiproliferative activity in vitro of EPL001 in solution be more predictably evoked and investigated more readily if the peptide is instead tethered to the cell culture’s substratum? […] In the first study EPL001 was immobilised by either its N terminus or C terminus and human stem cells exposed accordingly. This followed a confirmation of dissolved EPL001’s antiproliferative activity in the same laboratory (JAH). In the second study, aa sections of EPL001 were substituted with alanine strings prior to tethering, to define a functional biological motif. Into the base of each well of a 24-well plate was inserted a glass coverslip (13mm diameter, borosilicate glass, SLS, Nottingham, UK), upon the upper surface of which had been immobilised an individual peptide using a bioconjugate technique. During preparation of the coverslips, the surfaces were modified with carboxyl (−COOH) or amine (−NH2) groups separately using a published method. The carboxyl on the coverslips or at the end of the peptide sequence were reacted with NHS in the presence of EDC, resulting in a semi-stable NHS ester, which could then be reacted with primary amines (−NH2) on the coverslips or at the end of the peptide sequences to form amide crosslinks. For the carboxyl modified coverslips, the final peptide grafted on to the surface via its NH2 terminus was in the form Glass-CO-NH-Peptide. For the amine modified coverslips, the final peptide grafted on to the surface via its COOH terminus was in the form Glass-NH-CO-Peptide. The concentration of the peptides across the glass was approximately […]. Uncoated glass was used as the reference control. Treatments were in triplicate (i.e. n = 3). The cells used were human marrow derived mesenchymal stem cells (hMSCs, Lonza, Slough, UK, cat No PT-2507). In the EPL001-terminus study they were seeded at 10,000 cells per well; in the alanine substitution study the density was 5,000 cells per well. The cells were maintained in DMEM with 10% FSC. EPL001 and three alanine-substituted versions of it were deployed separately: MKPLTGKVKEFNNI (EPL001), AAAAAGKVKEFNNI (EPL590), MKPLTAAAAEFNNI (EPL545) and MKPLTGKVKEAAAA (EPL104). The peptides in the alanine substitution study were N-terminally tethered to the substrate. Cell numbers were measured by CyQuant® (Invitrogen, Paisley, UK). […] Statistical analysis was by ANOVA using SPSS software.
Four 14-aa peptides were synthesised: MKPLTGKVKEFNNI (EPL001), AAAAAGKVKEFNNI (EPL590), MKPLTAAAAEFNNI (EPL545) and MKPLTGKVKEAAAA (EPL104). The peptides were generated from l-isomer amino acids by solid phase peptide synthesis (Model 9050, Milligen). All peptides were N-terminally tethered to the substrate by a bioconjugate technique. MSCs were derived from human bone marrow and maintained in DMEM with 10% FSC. Cells were seeded on peptide treated surfaces including a glass control in a 24-well plate with cell density 5 x 10^3. The growth inhibitory activity was examined via cell proliferation assays and cell cycle analysis, using PI and Ki-67 staining. The cell phenotype and viability (7-AAD) were analysed by flow cytometry.

Steinernema siamkayai [2] = assay: Nematode pilot study fecundity (S3 Table 1); format: in vivo; details: inoculum 5 IJs
From the text: (§1) The attempt was made here to replicate prior fecundity work in another species of nematode, the entomopathogenic (insect slaying) Steinernema siamkayai. Species confirmation involved standard morphological and molecular techniques (S3 File, Nematodes). S. siamkayai is a biocontrol agent of potential economic significance in global agriculture, reducing the need for pesticides. Crucial for deployment is the production of ‘infective juveniles’. These forms penetrate the larvae of insect pests, releasing a bacterium, Xenorhabdus spp., which ultimately kills the larvae. Stock solutions (5 mg mL^-1) of EPL036 (IEPVFT) and EPL630 (KLKMNG) were made up and stored at −20 °C. Lipid Agar plates were prepared by pouring 5 ml media in 60 mm plastic Petri dishes. The plates were inoculated with an overnight-grown bacterial culture of Xenorhabdus spp. (10^9 cfu/ml) at 100 μl/plate and incubated at 28 °C for 24h. Xenorhabdus bacteria are symbiotically associated with S. siamkayai. While multiplying, Xenorhabdus metabolises the constituents of the lipid agar and the resulting by-products are the food supplement for the nematodes that triggers the worms to grow and multiply. From the stock solutions, peptides were introduced individually into the centre of the Lipid Agar plates with Xenorhabdus lawn. Two concentrations of peptide were used, 4 and 8 μL of the 5 mg mL^-1 stock peptide solutions (making 20 and 40 μg of peptide per plate in total, respectively, i.e. ~6 and ~12 μM). Each peptide solution was uniformly spread using an L shaped spreader and allowed to absorb into the agar plate for 10 minutes. Nematodes were harvested beforehand as follows. Third-stage infective juveniles (IJs) of S. siamkayai were used to infect fourth instar Galleria larvae. Following larval death, the Galleria cadavers were placed on a White’s Trap to harvest fresh progeny within 5–6 days. After storage in sterile water, these new-generation IJs were concentrated and inoculated on the bacterial plates on Day 1 at 500 and 1000 IJs /plate. The eight treatments (two inocula at two peptide concentrations) and two controls (two inocula without peptides) were replicated (x3) and incubated at 28 °C. Observations of behaviour and morphology were made at intervals throughout the study, then on Day 5 (i.e. after 4 units of 24h) the nematodes were harvested. Two ml of distilled water was poured on each Petri dish and gently stirred to release the nematodes from the surface. The surface washings containing suspended nematodes were collected in a standard volume of 20 ml of distilled water. The number of mature adults (male and female) and the second-generation juveniles (J1, J2, J3 and pre-adults) were counted using a dissecting microscope (x10 magnification, 4 fields) in 0.05 ml subsamples (x3) and multiplied up to the standard volume of 20 ml.
Mean number of A) Infective juveniles and B) Adults following inoculation of Petri dishes treated with EPL036 and EPL630 at 4 µL and 8 µL and an untreated control; Petri dishes were initially inoculated with 5 infective juveniles of Steinernema siamkayai following the method used in the main manuscript (Single way ANOVA presented beneath each data set).

Steinernema siamkayai [3] = assay: Steinernema siamkayai reproduction and development on lipid agar plates with hexapeptides; format: in vivo; set-up: key to Infective juveniles / Adults: counts per plate, scaled from 0.05 ml subsamples to 20 ml
From the text: as §1
Fig 2 Developmental impact on Steinernema siamkayai of hexapeptides after 4 days. INOCULUM = founding population of infective juveniles (IJs). ‘Infective juveniles’ on the vertical axis are mostly second-generation IJs. Peptides applied at the start of the study were EPL036 = IEPVFT, […] = KLKMNG. Total = Adults + Infective juveniles. Data are mean +/- SEM (average of 3 replicates). Statistical analysis: ANOVA. Control bars are doubly represented for ease of comparison. Note different vertical axes. […]

PC3 cells = assay: MTS colorimetric viable cell assay, PC3; format: cell-based, human
Protocol: (§2) Assays involving a range of peptides from 14mer down to 6mers assessed total viable PC3 or PNT2 cells using a 96-well plate MTS colorimetric assay (CellTiter 96 Aqueous One Solution Cell Proliferation Assay, Promega, Southampton, UK), with absorbance measured at 492 nm. Cells were seeded at 8,000 per well and grown for 27h. Peptides were administered at the outset to a final concentration of 30 μM (in 2 μl) to samples in triplicate. (A higher dosage was used than in the 14mer peptides study to shorten the timecourse of response.) Controls received buffer. Data are OD mean +/ − SEM, with statistical analysis by two tailed t-test. A time course study of the 14mers on PC3s, using the same technique, involved measurements at 24h and 48h.
(§3) Fig 5 Effects of a range of peptides on human prostate cancer cell growth in vitro. Assays involved a range of peptides from 14mers down to 6mers (Table 1), with viable cells assessed using a 96-well plate MTS colorimetric assay. Absorbance measured at 492 nm. Cells were seeded at 8,000 per well and grown for 27h. Peptides were administered at the outset to a final concentration of 30 μM (in 2 μl) to samples in triplicate. Controls received buffer. Data are OD mean +/- SEM, with statistical analysis by two tailed t-test. * p<0.05; **p<0.025.

PNT2 cells = assay: MTS colorimetric viable cell assay, PNT2; format: cell-based, human; details: 30 μM, 27h, 492 nm, triplicate
Protocol: as §2, §3

[4] = system: hDPSC (Human Dental Pulp Derived Mesenchymal-Like Stem/Progenitor Cells); set-up: method as in earlier work; details: EPL001 0.15µM or EPL140 15µM, three days; cited from earlier work
hMSCs = system: hMSCs; set-up: method as in earlier work; details: EPL001 0.15µM or EPL140 15µM, three days; cited from earlier work
Caenorhabditis elegans = details: in words; cited from earlier work
From the text: As a control compound there was synthesized EPL030, having the aa sequence KLKMNGKNIEPVFT. This is a scrambling of EPL001’s sequence, based on cards drawn at random by one of us (CRM). […] The figures for fecundity were EPL001 +43 ... || Returning to EPL030, the scrambled-sequence EPL001 comparator, this has engendered perplexity by displaying the same activity as EPL001 across multiple mammalian systems. Thus, EPL030 suppressed human prostate cancer cells in vitro more than EPL001 in two laboratories and the proliferation of rat bone marrow cells in vitro in a third.

DU145 cells = assay: MTS viable cell assay, DU145 (Epistem); format: cell-based, human; details: in words
Protocol: Further assays on human prostate cancer cells were conducted at a contract research organisation (Epistem, Manchester, UK). LNCaP or DU145 cells seeded at 3,000 cells/well across a 96-well plate were cultured in RPMI (phenol red free), 10% FCS, 1% sodium pyruvate, Pen/strep and L-glutamine for 24h before exposure to peptides, at a single dose level in the case of LNCaPs or multiple dose levels in the case of DU145s. (For dose levels see Results.) Controls received vehicle (1% PBS). For the DU145s peptide administration was repeated after 24h. 72h after the first administration (DU145s) or only administration (LNCaP) total viable cell numbers were measured colorimetrically (MTS) using a CellTiter 96 AQueous One Solution Cell Proliferation Assay (Promega, Southampton, UK), following manufacturer’s instructions. Briefly, the media on the plates was replaced with the CellTiter reagent diluted 1:5 in DMEM. The plates were returned to the incubator for 3 hours before reading absorbance at 492 nm on a FLUORstar OPTIMA (BMG Labtech). CellTiter data are the absorbance minus background values (CellTiter plus DMEM), expressed as (OD mean +/− SEM). Statistical analysis was by ANOVA, Dunnett’s multiple comparisons test.

Q: With “MKPLTGKVKEAAAA [EPL104, Substituted EPL001; alanines 11–14]” as the substance, how does the “Mean cell number below that of EPL001-N” value ([1]; 14 days) read?
A: 16%

Q: And the “Cell number vs Glass” value ([1]; Day 7)?
A: −29%

Q: And the “Cell number vs Glass” value ([1]; Day 14)?
A: −37%

Q: And the “Number of cells in the G0/G1 phase” value ([1]; FACS, PI, 86% for glass control)?
A: 90%

Q: And the Mean cell number ([1]; Day 7)?
A: 10,010 +/−4,427

Q: And the Mean cell number ([1]; Day 14)?
A: 16,736 +/−1,302

Q: What about the “Ki67 staining, % of cells” value ([1]; at termination, control cells 26.95%) of the same substance?
A: 12.69%

Q: Which “Cell number vs Glass” value ([1]; Day 7) does the source give for “MKPLTAAAAEFNNI [EPL545, Substituted EPL001; alanines 6–9]” here?
A: −29%

Q: What about the “Cell number vs Glass” value ([1]; Day 14) of the same substance?
A: −32%

Q: And the Mean cell number ([1]; Day 7)?
A: 10,007 +/−3,281

Q: What about the Mean cell number ([1]; Day 14) of the same substance?
A: 18,055 +/−1,771

Q: With KLKMNG [EPL630, KLKMNG, EPL030 Front 6] as the substance, how does the Adults (Steinernema siamkayai [2]; 4 µL, mean of 9 reps) read?
A: 1.9

Q: What about the Infective juveniles (Steinernema siamkayai [2]; 4 µL, mean of 9 reps) of the same substance?
A: 10.1

Q: And the Adults (Steinernema siamkayai [2]; 4 µL, rep 1)?
A: 1

Q: What about the Adults (Steinernema siamkayai [2]; 4 µL, rep 2) of the same substance?
A: 1

Q: What about the Adults (Steinernema siamkayai [2]; 4 µL, rep 3) of the same substance?
A: 2

Q: What about the Adults (Steinernema siamkayai [2]; 4 µL, rep 4) of the same substance?
A: 2

Q: And the Adults (Steinernema siamkayai [2]; 4 µL, rep 5)?
A: 2

Q: What about the Adults (Steinernema siamkayai [2]; 4 µL, rep 6) of the same substance?
A: 3

Q: What about the Adults (Steinernema siamkayai [2]; 4 µL, rep 7) of the same substance?
A: 2

Q: And the Adults (Steinernema siamkayai [2]; 4 µL, rep 8)?
A: 2

Q: What about the Adults (Steinernema siamkayai [2]; 4 µL, rep 9) of the same substance?
A: 2

Q: And the Adults (Steinernema siamkayai [2]; 8 µL, rep 1)?
A: 4

Q: And the Adults (Steinernema siamkayai [2]; 8 µL, rep 2)?
A: 5

Q: And the Adults (Steinernema siamkayai [3]; S3 Table 2, 8 µL, inoculum 500, mean of 3 reps)?
A: 363

Q: And the “Egg production in females” value (Steinernema siamkayai [3]; compared with untreated controls, 48h exposure (Fig 3))?
A: markedly below that of controls

Q: And the “Adults as % of the population at termination” value (Steinernema siamkayai [3]; controls ~23%)?
A: 26–29%

Q: And the “Time after incubation to fully grown males and females” value (Steinernema siamkayai [3]; observational)?
A: 48 h

Q: What about the “Time for infective juveniles to transform into pre-adults” value (Steinernema siamkayai [3]; observational) of the same substance?
A: about 36 h

Q: Which “Difference in percentage terms between control and test OD means” value (PC3 cells; PC3, 30 μM, 27h, MTS, 492 nm, triplicate) does the source give for “MLKTGEKPNFKNNI [EPL141, Human version of EPL143, with sheep V replaced by human N9]” here?
A: −22.6%

Q: And the “Mean OD as % of the EPL001 mean” value (PC3 cells; PC3 time course study, 24h)?
A: 56%

Q: And the “Difference in percentage terms between control and test OD means” value (PNT2 cells)?
A: −27.9%

Q: What does the source list for “MLKTGEKPNKFNNI [EPL140, Variant of human model compound EPL141, with KF instead of FK]”?
A: Bmal1 expression [4]: ↑↑; OCN expression [4]: ↓↓; PPARγ expression [4]: ↓; Per2 expression [4]: ↑↑; Rev-ErbA expression [4]: ↓; Sox9 expression [4]: (↑); Bmal1 expression (hMSCs): ↑; OCN expression (hMSCs): ↓; PPARγ expression (hMSCs): ↓↓; Per2 expression (hMSCs): ↓; Rev-ErbA expression (hMSCs): ↓; Sox9 expression (hMSCs): ↓↓

Q: Which “Fecundity effect in C. elegans” value (Caenorhabditis elegans) does the source give for “KLKNMGNKIEPVFT [EPL040, Scrambled EPL001 control]” here?
A: anti-fecundity

Q: For “MKPVFNNI [EPL801, EPL601 with all of the C-terminal triplet NNI from sSgII-70]”, which Cell inhibitory activity (DU145 cells) is on record?
A: inactive
